Results published in paper PMC9683047, “Design, synthesis and biological evaluation of 4-aminoquinoline derivatives as receptor-interacting protein kinase 2 (RIPK2) inhibitors” (Journal of Enzyme Inhibition and Medicinal Chemistry, 2022).

What was measured:
[1] = biological target: T1, RIPK2 (Homo sapiens, UniProt O43353); test: RIPK2 kinase inhibition assay (ADP-Glo); assay type: biochemical; conditions: mean ± SD from two separate experiments
T1 construct: purchased Promega
Description: RIPK2 kinase activity was analysed using the ADP-Glo™ Assay Kit (RIPK2 Kinase Enzyme System, Promega, USA). Reactions were performed according to the instructions. Specific signal was calculated by subtracting values in the wells without protein and inhibitor from the values in the test wells.

[2] = biological target: T1, RIPK2; test: Lipophilic ligand efficiency (LipE); conditions: LipE = pIC50 − ClogP
[3] = biological target: T2, RIPK1 (Homo sapiens, UniProt Q13546); test: RIPK1 inhibition rate at 1 µM; assay type: biochemical
T2 sequence (Q13546 1-671): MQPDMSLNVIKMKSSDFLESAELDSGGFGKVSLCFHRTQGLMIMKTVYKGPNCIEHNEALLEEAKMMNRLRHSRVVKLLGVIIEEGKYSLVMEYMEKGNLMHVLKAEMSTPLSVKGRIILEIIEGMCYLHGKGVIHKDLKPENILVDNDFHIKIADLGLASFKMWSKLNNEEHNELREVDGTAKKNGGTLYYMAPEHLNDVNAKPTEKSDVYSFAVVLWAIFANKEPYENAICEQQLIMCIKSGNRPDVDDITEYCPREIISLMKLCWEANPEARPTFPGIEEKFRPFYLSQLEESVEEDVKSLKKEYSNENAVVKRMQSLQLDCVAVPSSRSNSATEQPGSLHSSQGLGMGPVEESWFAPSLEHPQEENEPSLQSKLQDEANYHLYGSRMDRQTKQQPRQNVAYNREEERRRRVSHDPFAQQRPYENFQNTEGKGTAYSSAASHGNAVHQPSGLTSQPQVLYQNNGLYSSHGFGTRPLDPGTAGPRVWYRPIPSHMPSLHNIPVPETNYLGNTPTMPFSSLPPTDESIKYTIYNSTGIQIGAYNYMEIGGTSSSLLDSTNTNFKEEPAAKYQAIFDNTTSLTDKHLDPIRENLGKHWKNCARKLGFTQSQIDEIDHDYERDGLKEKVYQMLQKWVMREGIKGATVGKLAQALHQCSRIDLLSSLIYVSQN
Description: Table 4. Selectivity, ClogP and LipE of compound 14, 15, 21, 32, 36. | column: RIPK1 IR@1µM (%)

T1 sequence (O43353 whole entry): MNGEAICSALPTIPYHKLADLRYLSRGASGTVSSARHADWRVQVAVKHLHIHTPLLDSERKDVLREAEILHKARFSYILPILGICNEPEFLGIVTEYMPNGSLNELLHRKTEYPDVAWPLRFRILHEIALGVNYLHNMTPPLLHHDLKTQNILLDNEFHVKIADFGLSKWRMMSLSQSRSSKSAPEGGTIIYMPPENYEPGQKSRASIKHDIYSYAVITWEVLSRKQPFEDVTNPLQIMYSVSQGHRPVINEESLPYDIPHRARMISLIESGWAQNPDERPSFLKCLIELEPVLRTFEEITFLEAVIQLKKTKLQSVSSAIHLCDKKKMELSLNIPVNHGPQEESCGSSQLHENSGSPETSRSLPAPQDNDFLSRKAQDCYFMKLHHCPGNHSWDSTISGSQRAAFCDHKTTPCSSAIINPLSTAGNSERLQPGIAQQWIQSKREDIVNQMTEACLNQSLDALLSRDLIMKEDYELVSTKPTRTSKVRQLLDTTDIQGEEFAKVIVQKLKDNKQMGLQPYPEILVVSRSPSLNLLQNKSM

SMILES	IC50 [1]	LipE [2]	RIPK1 IR@1µM (%) [3]	RIPK2 IC50 [1]
Brc1ccc2nccc(Nc3ccccc3)c2c1 [Compound 1, 6-Bromo-N-phenylquinolin-4-amine]	243 ± 14.8 nM	2.57	–	–
Brc1ccc2nccc(Nc3ccc4cn[nH]c4c3)c2c1 [Compound 12, 6-Bromo-N-(1H-indazol-6-yl)quinolin-4-amine]	22.2 ± 5.2 nM	3.49	–	–
COc1cc(Nc2ccnc3ccc(Br)cc23)cc(OC)c1OC [Compound 6, 6-Bromo-N-(3,4,5-trimethoxyphenyl)quinolin-4-amine]	10.7 ± 0.1 nM	3.63	–	–
c1cc(Nc2ccc3scnc3c2)c2cc(-c3ccnc4[nH]ccc34)ccc2n1 [Compound 28, N-(6-(1H-pyrrolo[2,3-b]pyridin-4-yl)quinolin-4-yl)benzo[d]thiazol-5-amine]	7.3 ± 3.5 nM	3.46	–	–
Brc1ccc2nccc(Nc3ccc4scnc4c3)c2c1 [Compound 10, N-(6-bromoquinolin-4-yl)benzo[d]thiazol-5-amine]	12.2 ± 2.5 nM	3.97	–	–
c1ccc(-c2ccc3nccc(Nc4ccc5scnc5c4)c3c2)nc1 [Compound 16, N-(6-(pyridin-2-yl)quinolin-4-yl)benzo[d]thiazol-5-amine]	3.6 ± 1.4 nM	4.11	–	–
Brc1ccc2nccc(Nc3ccc4ncsc4c3)c2c1 [Compound 11, N-(6-bromoquinolin-4-yl)benzo[d]thiazol-6-amine]	82.3 ± 12.2 nM	3.21	–	–
Cc1nn(C)cc1-c1ccc2nccc(Nc3ccc4scnc4c3)c2c1 [Compound 23, N-(6–(1,3-dimethyl-1H-pyrazol-4-yl)quinolin-4-yl)benzo[d]thiazol-5-amine]	9.5 ± 3.7 nM	2.92	–	–
Cn1cc(-c2ccc3nccc(Nc4ccc5scnc5c4)c3c2)cn1 [Compound 19, N-(6–(1-methyl-1H-pyrazol-4-yl)quinolin-4-yl)benzo[d]thiazol-5-amine]	16.4 ± 1.6 nM	3.08	–	–
COc1cc(Nc2ccnc3ccc(-c4ccccn4)cc23)cc(OC)c1OC [Compound 33, 6-(Pyridin-2-yl)-N-(3,4,5-trimethoxyphenyl)quinolin-4-amine]	12.4 ± 8.9 nM	3.26	–	–
Brc1ccc2nccc(Nc3cccnc3)c2c1 [Compound 8, 6-Bromo-N-(pyridin-3-yl)quinolin-4-amine]	151 ± 30.1 nM	3.68	–	–
Cc1n[nH]cc1-c1ccc2nccc(Nc3ccc4scnc4c3)c2c1 [Compound 21, N-(6–(3-methyl-1H-pyrazol-4-yl)quinolin-4-yl)benzo[d]thiazol-5-amine]	4.1 ± 0.9 nM	4.99	<1%	–
c1ccc2c(-c3ccc4nccc(Nc5ccc6scnc6c5)c4c3)cncc2c1 [Compound 29, N-(6-(isoquinolin-4-yl)quinolin-4-yl)benzo[d]thiazol-5-amine]	17.2 ± 2.3 nM	3.81	–	–
c1ncc(-c2ccc3nccc(Nc4ccc5scnc5c4)c3c2)cn1 [Compound 17, N-(6-(pyrimidin-5-yl)quinolin-4-yl)benzo[d]thiazol-5-amine]	1.5 ± 0.3 nM	2.80	–	–
Cc1cscc1-c1ccc2nccc(Nc3ccc4scnc4c3)c2c1 [Compound 24, N-(6–(4-methylthiophen-3-yl)quinolin-4-yl)benzo[d]thiazol-5-amine]	19.6 ± 12 nM	2.37	–	–
c1cc(-c2ccc3nccc(Nc4ccc5scnc5c4)c3c2)c2cn[nH]c2c1 [Compound 27, N-(6-(1H-indazol-4-yl)quinolin-4-yl)benzo[d]thiazol-5-amine]	3.7 ± 0.4 nM	–	–	–
c1ccc2ncc(-c3ccc4nccc(Nc5ccc6scnc6c5)c4c3)cc2c1 [Compound 30, N-([3,6'-biquinolin]-4'-yl)benzo[d]thiazol-5-amine]	41.7 ± 19 nM	2.80	–	–
CC(=O)c1cccc(Nc2ccnc3ccc(Br)cc23)c1 [Compound 4, 1–(3-((6-Bromoquinolin-4-yl)amino)phenyl)ethan-1-one]	92.5 ± 22.1 nM	3.50	–	–

SMILES	IC50 [1]	LipE [2]	RIPK1 IR@1µM (%) [3]	RIPK2 IC50 [1]
c1cc(Nc2ccc3scnc3c2)c2cc(-c3cn[nH]c3)ccc2n1 [Compound 20, N-(6-(1H-pyrazol-4-yl)quinolin-4-yl)benzo[d]thiazol-5-amine]	8.2 ± 1.6 nM	3.04	–	–
COc1cc(Nc2ccnc3ccc(-c4ccncc4)cc23)cc(OC)c1OC [Compound 31, 6-(Pyridin-4-yl)-N-(3,4,5-trimethoxyphenyl)quinolin-4-amine]	8.1 ± 3.9 nM	3.87	–	–
Cc1cnn(C)c1-c1ccc2nccc(Nc3ccc4scnc4c3)c2c1 [Compound 22, N-(6–(1,4-dimethyl-1H-pyrazol-5-yl)quinolin-4-yl)benzo[d]thiazol-5-amine]	19 ± 6.7 nM	3.86	–	–
COc1cc(Nc2ccnc3ccc(-c4cn[nH]c4)cc23)cc(OC)c1OC [Compound 37, 6–(1 h-pyrazol-4-yl)-N-(3,4,5-trimethoxyphenyl)quinolin-4-amine]	14.5 ± 5.6 nM	4.22	–	–
Fc1cc(Nc2ccnc3ccc(Br)cc23)ccc1Cl [Compound 5, 6-Bromo-N-(4-chloro-3-fluorophenyl)quinolin-4-amine]	31.4 ± 6.2 nM	2.78	–	–
c1cc(Nc2ccc3scnc3c2)c2cc(-c3ccc4[nH]ccc4c3)ccc2n1 [Compound 25, N-(6-(1H-indol-5-yl)quinolin-4-yl)benzo[d]thiazol-5-amine]	11.1 ± 3.6 nM	3.87	–	–
Brc1ccc2nccc(Nc3ccncc3)c2c1 [Compound 9, 6-Bromo-N-(pyridin-4-yl)quinolin-4-amine]	421 ± 106 nM	3.24	–	–
c1cc(-c2ccc3nccc(Nc4ccc5scnc5c4)c3c2)c2cc[nH]c2c1 [Compound 26, N-(6-(1H-indol-4-yl)quinolin-4-yl)benzo[d]thiazol-5-amine]	9.4 ± 1.1 nM	5.00	–	–
COc1cc(Nc2ccnc3ccc(-c4cnn(C)c4)cc23)cc(OC)c1OC [Compound 36, 6–(1-Methyl-1H-pyrazol-4-yl)-N-(3,4,5-trimethoxyphenyl)quinolin-4-amine]	7.2 ± 2.6 nM	3.67	<1%	–
CC(C)Oc1cccc(Nc2ccnc3ccc(Br)cc23)c1 [Compound 3, 6-Bromo-N-(3-isopropoxyphenyl)quinolin-4-amine]	> 1000 nM	–	–	loss of the activity
COc1cc(Nc2ccnc3ccc(-c4cccnc4)cc23)cc(OC)c1OC [Compound 32, 6-(Pyridin-3-yl)-N-(3,4,5-trimethoxyphenyl)quinolin-4-amine]	2.4 ± 0.2 nM	4.30	19%	–
COc1cc(Nc2ccnc3ccc(-c4c[nH]nc4C)cc23)cc(OC)c1OC [Compound 38, 6–(3-Methyl-1H-pyrazol-4-yl)-N-(3,4,5-trimethoxyphenyl)quinolin-4-amine]	19.2 ± 0.7 nM	3.79	–	–
COc1cccc(Nc2ccnc3ccc(Br)cc23)c1 [Compound 2, 6-Bromo-N-(3-methoxyphenyl)quinolin-4-amine]	54.8 ± 3.4 nM	3.10	–	–
Brc1ccc2nccc(Nc3ccc4[nH]ccc4c3)c2c1 [Compound 13, 6-Bromo-N-(1H-indol-5-yl)quinolin-4-amine]	118 ± 21.5 nM	2.82	–	–
COc1cc(Nc2ccnc3ccc(-c4cccc5[nH]ncc45)cc23)cc(OC)c1OC [Compound 35, 6–(1 h-indazol-4-yl)-N-(3,4,5-trimethoxyphenyl)quinolin-4-amine]	7.1 ± 4.7 nM	3.24	–	–
Brc1ccc2nccc(Nc3ccccn3)c2c1 [Compound 7, 6-Bromo-N-(pyridin-2-yl)quinolin-4-amine]	> 1000 nM	–	–	–
COc1cc(Nc2ccnc3ccc(-c4cncnc4)cc23)cc(OC)c1OC [Compound 34, 6-(Pyrimidin-5-yl)-N-(3,4,5-trimethoxyphenyl)quinolin-4-amine]	11 ± 1.7 nM	4.58	–	–
c1ccc(-c2ccc3nccc(Nc4ccc5scnc5c4)c3c2)cc1 [Compound 18, N-(6-phenylquinolin-4-yl)benzo[d]thiazol-5-amine]	24 ± 11.6 nM	5.81	–	–
